Consider 1 molecule from ChEMBL document CHEMBL5096181, “Isoxazole derivatives as anticancer agent: A review on synthetic strategies, mechanism of action and SAR studies” (Eur J Med Chem, 2021).

The experiment has as its target T1, Estrogen receptor (Homo sapiens, UniProt P03372).
T1 sequence (P03372 whole entry): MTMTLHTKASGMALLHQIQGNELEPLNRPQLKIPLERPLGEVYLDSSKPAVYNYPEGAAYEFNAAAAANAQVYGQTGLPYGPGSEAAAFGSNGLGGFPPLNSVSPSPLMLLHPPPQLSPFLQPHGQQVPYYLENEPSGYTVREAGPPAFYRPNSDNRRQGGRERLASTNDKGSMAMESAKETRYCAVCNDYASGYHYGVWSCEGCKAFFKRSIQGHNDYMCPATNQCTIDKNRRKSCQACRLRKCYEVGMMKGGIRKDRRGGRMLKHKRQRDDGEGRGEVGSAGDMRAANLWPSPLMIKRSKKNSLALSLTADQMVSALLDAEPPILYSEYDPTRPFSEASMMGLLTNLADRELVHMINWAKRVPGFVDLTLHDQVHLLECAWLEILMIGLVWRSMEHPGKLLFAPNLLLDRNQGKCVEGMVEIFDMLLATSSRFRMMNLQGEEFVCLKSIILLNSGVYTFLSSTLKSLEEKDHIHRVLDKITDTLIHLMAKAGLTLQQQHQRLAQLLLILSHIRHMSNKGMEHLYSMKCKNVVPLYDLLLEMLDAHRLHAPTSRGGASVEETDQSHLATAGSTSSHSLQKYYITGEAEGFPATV
The experiment can be described thus: Inhibition of ERalpha (unknown origin) in MCF7 cells measured after 24 to 48 hrs by FRET assay. Type of experiment: cell-based.

`COc1onc(-c2ccc(O)cc2)c1-c1oc2ccccc2c(=O)c1O` had an IC50 of 91.1 µM.

Usually IC50 stands for the concentration that gives 50% inhibition.
